Inconclusive results and toxic doses are left out. Rule as the data show it: active = T/C of 150% or more; inactive = T/C below 125%. Square brackets hold non-standard residues; d marks the D form. Peptide text beside a SMILES is read from it. * marks the point of attachment. ξ: configuration not given here. Cbz = O=C(OCc1ccccc1)*; ξT = CC(O)C(N)C(=O)O; OBn = c1ccc(CO*)cc1
Test system: L1210 leukemia ip in BDF1 mice, survival T/C
Assay: NCI In Vivo Anticancer Drug Screen. Data for tumor model L1210 Leukemia (intraperitoneal) in B6D2F1 (BDF1) mice
Conditions: endpoint: mean survival time, higher = longer survival
Method in brief: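 Survival endpoint. Drug-treated group vs vehicle group, expressed as T divided by C. Tumor passaged by transplantation.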

[1] = dose: 100.0 mg/kg/injection, schedule: Q01DX001 (ip), vehicle: saline with Tween-80
[2] = dose: 200.0 mg/kg/injection, schedule: Q01DX001 (ip), vehicle: saline with Tween-80
[3] = dose: 400.0 mg/kg/injection, schedule: Q01DX001 (ip), vehicle: saline with Tween-80
[4] = dose: 100.0 mg/kg/injection, schedule: Q01DX001 (ip), vehicle: saline
[5] = dose: 200.0 mg/kg/injection, schedule: Q01DX001 (ip), vehicle: saline
[6] = dose: 400.0 mg/kg/injection, schedule: Q01DX001 (ip), vehicle: saline
[7] = dose: 100.0 mg/kg/injection, schedule: Q04DX003 (ip), vehicle: saline with Tween-80
[8] = dose: 200.0 mg/kg/injection, schedule: Q04DX003 (ip), vehicle: saline with Tween-80
[9] = dose: 400.0 mg/kg/injection, schedule: Q04DX003 (ip), vehicle: saline with Tween-80

Measured: T/C

CC1(C)OC2OC(COC(=O)c3ccccc3)C(O)C2O1 (stereo not given)
inactive: dose: 50.0 mg/kg/injection, schedule: Q01DX001 (ip), vehicle: carboxymethylcellulose (CMC) 98 % of control | dose: 100.0 mg/kg/injection, schedule: Q01DX001 (ip), vehicle: carboxymethylcellulose (CMC) 101 % of control | dose: 200.0 mg/kg/injection, schedule: Q01DX001 (ip), vehicle: carboxymethylcellulose (CMC) 104 % of control | dose: 400.0 mg/kg/injection, schedule: Q01DX001 (ip), vehicle: carboxymethylcellulose (CMC) 98 % of control

C[N+]1(CCl)CCOCC1
inactive: dose: 1.74 mg/kg/injection, schedule: Q01DX009 (ip), vehicle: saline 104 % of control | dose: 2.6 mg/kg/injection, schedule: Q01DX009 (ip), vehicle: saline 104 % of control | dose: 4.0 mg/kg/injection, schedule: Q01DX001 (ip), vehicle: saline 105 % of control | dose: 4.0 mg/kg/injection, schedule: Q01DX009 (ip), vehicle: saline 94 % of control | dose: 4.0 mg/kg/injection, schedule: Q04DX003 (ip), vehicle: saline 100 % of control | dose: 4.0 mg/kg/injection, schedule: Q08DX002 (ip), vehicle: saline 105 % of control | dose: 6.0 mg/kg/injection, schedule: Q01DX001 (ip), vehicle: saline 102 % of control | dose: 6.0 mg/kg/injection, schedule: Q01DX009 (ip), vehicle: saline 102 % of control | dose: 6.0 mg/kg/injection, schedule: Q04DX003 (ip), vehicle: saline 98 % of control | dose: 6.0 mg/kg/injection, schedule: Q08DX002 (ip), vehicle: saline 111 % of control | dose: 9.0 mg/kg/injection, schedule: Q01DX009 (ip), vehicle: saline 100 % of control | dose: 10.0 mg/kg/injection, schedule: Q01DX001 (ip), vehicle: saline 102 % of control | dose: 10.0 mg/kg/injection, schedule: Q04DX003 (ip), vehicle: saline 105 % of control | dose: 10.0 mg/kg/injection, schedule: Q08DX002 (ip), vehicle: saline 104 % of control | dose: 14.0 mg/kg/injection, schedule: Q01DX001 (ip), vehicle: saline 104 % of control | dose: 14.0 mg/kg/injection, schedule: Q04DX003 (ip), vehicle: saline 102 % of control | dose: 14.0 mg/kg/injection, schedule: Q08DX002 (ip), vehicle: saline 107 % of control | dose: 21.0 mg/kg/injection, schedule: Q01DX001 (ip), vehicle: saline 102 % of control | dose: 21.0 mg/kg/injection, schedule: Q04DX003 (ip), vehicle: saline 100 % of control | dose: 21.0 mg/kg/injection, schedule: Q08DX002 (ip), vehicle: saline 100 % of control | dose: 75.0 mg/kg/injection, schedule: Q01DX001 (ip), vehicle: saline 98 % of control | dose: 150.0 mg/kg/injection, schedule: Q01DX001 (ip), vehicle: saline 107 % of control

CC12CC(O)C(C=C1c1ccccc1)C2(C)C (stereo not given)
inactive: dose: 100.0 mg/kg/injection, schedule: Q04DX002 (ip), vehicle: other 86 % of control | dose: 200.0 mg/kg/injection, schedule: Q04DX002 (ip), vehicle: other 93 % of control | dose: 400.0 mg/kg/injection, schedule: Q04DX002 (ip), vehicle: other 90 % of control

CC1(c2ccccc2)OCCCO1
inactive: [1] 100 % of control | [2] 98 % of control | [3] 107 % of control

COC(=O)C1C2C(C)=C3CCCCC3(C1C(=O)OC)C(C(=O)OC)C2C(=O)OC (stereo not given)
inactive: [4] 113 % of control | [5] 95 % of control | [6] 86 % of control

CC1(c2cccc([N+](=O)[O-])c2)OCCO1
inactive: dose: 100.0 mg/kg/injection, schedule: Q01DX009 (ip), vehicle: other 100 % of control | dose: 100.0 mg/kg/injection, schedule: Q04DX003 (ip), vehicle: other 103 % of control | dose: 200.0 mg/kg/injection, schedule: Q01DX009 (ip), vehicle: other 98 % of control | dose: 200.0 mg/kg/injection, schedule: Q04DX003 (ip), vehicle: other 104 % of control | dose: 400.0 mg/kg/injection, schedule: Q01DX009 (ip), vehicle: other 104 % of control | dose: 400.0 mg/kg/injection, schedule: Q04DX003 (ip), vehicle: other 100 % of control

COC1=C2C[C@@H](C)C[C@@H](OC)[C@@H](O)[C@H](C)/C=C(\C)[C@@H](OC(N)=O)[C@H](OC)/C=C\C=C(/C)C(=O)NC(=CC1=O)C2=O
inactive: dose: 0.13 mg/kg/injection, schedule: Q01DX009 (ip), vehicle: saline with Tween-80 103 % of control | dose: 0.25 mg/kg/injection, schedule: Q01DX009 (ip), vehicle: saline with Tween-80 103 % of control | dose: 0.5 mg/kg/injection, schedule: Q01DX009 (ip), vehicle: saline with Tween-80 98 % of control | dose: 1.0 mg/kg/injection, schedule: Q01DX009 (ip), vehicle: saline with Tween-80 101 % of control | dose: 2.0 mg/kg/injection, schedule: Q01DX009 (ip), vehicle: saline with Tween-80 103 % of control | dose: 4.0 mg/kg/injection, schedule: Q01DX009 (ip), vehicle: saline with Tween-80 108 % of control

CC(=O)Nc1ccc(P(=O)(O)O)cc1[N+](=O)[O-]
inactive: dose: 100.0 mg/kg/injection, schedule: Q04DX003 (ip), vehicle: saline 91 % of control | dose: 200.0 mg/kg/injection, schedule: Q04DX003 (ip), vehicle: saline 102 % of control | dose: 400.0 mg/kg/injection, schedule: Q04DX003 (ip), vehicle: saline 115 % of control

CCCCC1CCCCC1
inactive: dose: 100.0 mg/kg/injection, schedule: Q01DX009 (ip), vehicle: saline with Tween-80 106 % of control | dose: 200.0 mg/kg/injection, schedule: Q01DX009 (ip), vehicle: saline with Tween-80 98 % of control | dose: 400.0 mg/kg/injection, schedule: Q01DX009 (ip), vehicle: saline with Tween-80 96 % of control

O=C1c2cc(Cl)cc(Cl)c2-c2c1cc(Cl)cc2[N+](=O)[O-]
inactive: dose: 100.0 mg/kg/injection, schedule: Q01DX009 (ip), vehicle: Klucel (hydroxypropylcellulose) (HPC) 97 % of control | dose: 100.0 mg/kg/injection, schedule: Q04DX003 (ip), vehicle: Klucel (hydroxypropylcellulose) (HPC) 97 % of control | dose: 200.0 mg/kg/injection, schedule: Q01DX009 (ip), vehicle: Klucel (hydroxypropylcellulose) (HPC) 95 % of control | dose: 200.0 mg/kg/injection, schedule: Q04DX003 (ip), vehicle: Klucel (hydroxypropylcellulose) (HPC) 97 % of control | dose: 400.0 mg/kg/injection, schedule: Q01DX009 (ip), vehicle: Klucel (hydroxypropylcellulose) (HPC) 97 % of control | dose: 400.0 mg/kg/injection, schedule: Q04DX003 (ip), vehicle: Klucel (hydroxypropylcellulose) (HPC) 92 % of control

CC(=O)OC1CCCC(OCC(C)C)O1 (stereo not given)
inactive: dose: 40.0 mg/kg/injection, schedule: Q01DX Z (ip), vehicle: saline 94 % of control | dose: 60.0 mg/kg/injection, schedule: Q01DX Z (ip), vehicle: saline 92 % of control

CC(O)C(NC(=O)CNC(=O)OCc1ccccc1)C(=O)OCc1ccccc1 (stereo not drawn) (Cbz-Gly-[ξT]-OBn)
inactive: [7] 97 % of control | [8] 105 % of control | [9] 97 % of control

CN(C)CC(=O)O
inactive: dose: 100.0 mg/kg/injection, schedule: Q01DX009 (ip), vehicle: saline 94 % of control | dose: 200.0 mg/kg/injection, schedule: Q01DX009 (ip), vehicle: saline 94 % of control | dose: 400.0 mg/kg/injection, schedule: Q01DX009 (ip), vehicle: saline 94 % of control

CCCCCCCCCCCC[N+](C)(C)CCn1cnc2c(N)ncnc21
inactive: dose: 6.25 mg/kg/injection, schedule: Q04DX003 (ip), vehicle: saline 106 % of control | dose: 12.5 mg/kg/injection, schedule: Q04DX003 (ip), vehicle: saline 109 % of control | dose: 25.0 mg/kg/injection, schedule: Q04DX003 (ip), vehicle: saline 103 % of control

Cc1ccc(S(=O)(=O)OCCCN(CCCOS(=O)(=O)c2ccc(C)cc2)c2ccccc2)cc1
inactive: dose: 50.0 mg/kg/injection, schedule: Q01DX001 (ip), vehicle: saline 101 % of control | [4] 86 % of control | [5] 95 % of control | [6] 95 % of control

CCCCOC(=O)CSC(=O)C(O)c1ccccc1 (stereo not given)
inactive: [7] 105 % of control | [8] 101 % of control | [9] 103 % of control

CN(C)c1nnc(-c2ccc(Cl)cc2)nn1
inactive: [1] 96 % of control | [2] 92 % of control | [3] 88 % of control

From PubChem BioAssay AID248 (DTP/NCI, 2004)
